Test results published in ChEMBL document CHEMBL1124261 (J Med Chem, 1988).
One block for each molecule: values may come before it.

Experiments:
[1] = (§1) Inhibitory constant against purified Folyl-polyglutamate synthase from mouse liver; type: functional
L1210 ( R81) = experiment: Tested for cell-growth inhibition against mouse leukemic L1210/R81 cells; type: functional, cell-based
L1210 [2] = experiment: Tested for cell-growth inhibition against mouse leukemic L1210 cells; type: functional, cell-based
Mus musculus = species on record: Mus musculus; experiment: (§2) Tested for inhibition against purified Folyl-polyglutamate synthase from mouse liver; details: concentration not given here
Dihydrofolate reductase = biological target: T1, Dihydrofolate reductase (Mus musculus, UniProt P00375); experiment: biochemical
T1 sequence (P00375 whole entry): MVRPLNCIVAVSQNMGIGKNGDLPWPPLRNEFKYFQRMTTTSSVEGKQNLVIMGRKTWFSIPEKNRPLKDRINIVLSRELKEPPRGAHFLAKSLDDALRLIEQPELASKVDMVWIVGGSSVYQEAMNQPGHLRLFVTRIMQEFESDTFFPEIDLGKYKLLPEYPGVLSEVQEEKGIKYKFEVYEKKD
Description: Tested for inhibition against purified Dihydrofolate reductase from L1210 murine leukemia cells

L1210 [3] = experiment: Mean change in weight of mice infected with L1210 leukemia after 7 days after an intraperitoneal dose of 80 mg/kg; type: functional, Mus musculus
L1210 [4] = experiment: Range for the survival of mice infected with L1210 leukemia after an intraperitoneal dose of 20 mg/kg for 9 days; Range is 14-16; type: functional, Mus musculus
L1210 [5] = experiment: Increase in life span of mice infected with L1210 leukemia after an intraperitoneal dose of 20 mg/kg for 9 days; type: functional; details: Mus musculus, L1210, ip, 216 h
CCRF-CEM [6] = experiment: Tested for cell-growth inhibition against human leukemic lymphoblast CEM/MTX cells; type: functional, cell-based
L1210 [7] = experiment: Mean survival of mice infected with L1210 leukemia after an intraperitoneal dose of 40 mg/kg for 9 days; type: functional, Mus musculus
L1210 [8] = experiment: Range for the survival of mice infected with L1210 leukemia after an intraperitoneal dose of 60 mg/kg for 9 days; Range is 17-19; type: functional, Mus musculus
L1210 [9] = experiment: Mean survival of mice infected with L1210 leukemia after an intraperitoneal dose of 60 mg/kg for 9 days; type: functional, Mus musculus
L1210 [10] = experiment: Increase in life span of mice infected with L1210 leukemia after an intraperitoneal dose of 40 mg/kg for 9 days; type: functional; details: Mus musculus, L1210, ip, 216 h
[11] = biological target: T2, Folylpolyglutamate synthase, mitochondrial (Mus musculus) (UniProt P48760); experiment: as §2; details: concentration not given here
T2 sequence (whole entry): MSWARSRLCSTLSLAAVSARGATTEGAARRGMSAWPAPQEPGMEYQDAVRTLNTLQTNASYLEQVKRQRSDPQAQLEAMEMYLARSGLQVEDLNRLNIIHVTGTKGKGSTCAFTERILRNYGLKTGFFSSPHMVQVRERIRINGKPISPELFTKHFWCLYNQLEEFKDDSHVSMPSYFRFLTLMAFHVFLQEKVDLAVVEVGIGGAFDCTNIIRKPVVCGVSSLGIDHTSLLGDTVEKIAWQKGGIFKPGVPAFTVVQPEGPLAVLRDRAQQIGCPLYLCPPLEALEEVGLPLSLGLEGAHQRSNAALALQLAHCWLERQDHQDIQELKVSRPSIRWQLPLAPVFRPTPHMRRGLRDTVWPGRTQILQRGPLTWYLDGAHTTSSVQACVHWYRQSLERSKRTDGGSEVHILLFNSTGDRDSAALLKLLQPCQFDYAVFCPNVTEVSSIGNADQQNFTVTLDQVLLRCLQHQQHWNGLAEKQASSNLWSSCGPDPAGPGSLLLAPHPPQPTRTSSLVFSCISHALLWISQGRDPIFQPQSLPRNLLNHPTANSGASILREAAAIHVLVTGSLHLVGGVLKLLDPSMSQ

L1210 [12] = experiment: Range for the survival of mice infected with L1210 leukemia after an intraperitoneal dose of 80 mg/kg for 9 days; Range is 9-16; type: functional, Mus musculus
L1210 [13] = experiment: Mean change in weight of mice infected with L1210 leukemia after 7 days after an intraperitoneal dose of 20 mg/kg; type: functional, Mus musculus
CCRF-CEM [14] = experiment: Tested for cell-growth inhibition against human leukemic lymphoblast CEM cells; type: functional, cell-based
L1210 [15] = experiment: Range for the survival of mice infected with L1210 leukemia after an intraperitoneal dose of 40 mg/kg for 9 days; Range is 15-22; type: functional, Mus musculus
L1210 [16] = experiment: Mean change in weight of mice infected with L1210 leukemia after 7 days after an intraperitoneal dose of 60 mg/kg; type: functional, Mus musculus
L1210 [17] = experiment: Increase in life span of mice infected with L1210 leukemia after an intraperitoneal dose of 80 mg/kg for 9 days; type: functional; details: Mus musculus, L1210, ip, 216 h
L1210 [18] = experiment: Mean survival of mice infected with L1210 leukemia after an intraperitoneal dose of 20 mg/kg for 9 days; type: functional, Mus musculus
[19] = biological target: T3, Folylpolyglutamate synthase, mitochondrial (Mus musculus, UniProt P48760); experiment: as §1
T3 sequence (P48760 whole entry): T2 sequence (whole entry)

L1210 [20] = experiment: Increase in life span of mice infected with L1210 leukemia after an intraperitoneal dose of 60 mg/kg for 9 days; type: functional; details: Mus musculus, L1210, ip, 216 h
L1210 [21] = experiment: Mean survival of mice infected with L1210 leukemia after an intraperitoneal dose of 80 mg/kg for 9 days; type: functional, Mus musculus
L1210 [22] = experiment: Mean change in weight of mice infected with L1210 leukemia after 7 days after an intraperitoneal dose of 40 mg/kg; type: functional, Mus musculus
L1210 [23] = experiment: Range for the survival of mice infected with L1210 leukemia after an intraperitoneal dose of 60 mg/kg for 9 days; Range is 9-24; type: functional, Mus musculus
L1210 [24] = experiment: Range for the survival of mice infected with L1210 leukemia after an intraperitoneal dose of 40 mg/kg for 9 days; Range is 12-25; type: functional, Mus musculus
L1210 [25] = experiment: Range for the survival of mice infected with L1210 leukemia after an intraperitoneal dose of 80 mg/kg for 9 days; Range is 9-11; type: functional, Mus musculus
L1210 [26] = experiment: Range for the survival of mice infected with L1210 leukemia after an intraperitoneal dose of 20 mg/kg for 9 days; Range is 19-22; type: functional, Mus musculus
[27] = biological target: T3, Folylpolyglutamate synthase, mitochondrial; experiment: Inhibitory constant against purified Folyl-polyglutamate synthase obtained from mouse liver
[28] = biological target: T4, Folylpolyglutamate synthase, mitochondrial (Homo sapiens, UniProt Q05932); experiment: Inhibitory constant against purified Folyl-polyglutamate synthase obtained from human
T4 sequence (Q05932 whole entry): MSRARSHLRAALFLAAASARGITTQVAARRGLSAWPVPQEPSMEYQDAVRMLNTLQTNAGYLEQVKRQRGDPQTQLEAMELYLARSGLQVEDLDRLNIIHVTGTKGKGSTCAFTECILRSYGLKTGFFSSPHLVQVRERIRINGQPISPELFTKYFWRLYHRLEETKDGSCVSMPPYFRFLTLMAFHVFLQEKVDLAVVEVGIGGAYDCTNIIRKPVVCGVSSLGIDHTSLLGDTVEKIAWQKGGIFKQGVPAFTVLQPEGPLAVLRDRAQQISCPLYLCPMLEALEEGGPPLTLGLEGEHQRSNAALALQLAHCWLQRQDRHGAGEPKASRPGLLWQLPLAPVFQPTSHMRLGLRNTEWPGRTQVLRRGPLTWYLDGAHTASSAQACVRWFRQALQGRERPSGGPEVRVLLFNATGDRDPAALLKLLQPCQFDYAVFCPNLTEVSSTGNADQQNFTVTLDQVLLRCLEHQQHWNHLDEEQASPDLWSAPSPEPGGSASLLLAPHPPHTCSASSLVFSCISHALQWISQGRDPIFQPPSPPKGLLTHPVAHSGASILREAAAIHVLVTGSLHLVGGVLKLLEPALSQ

- Ki [1]: 24 µM
- IC50 (L1210 ( R81)): 110 µM
- IC50 (L1210 [2]): 0.00065 µM
- inhibition (Mus musculus): 90%
- IC50 (Dihydrofolate reductase): 0.081 µM
Compound: Nc1nc(N)c2nc(CNc3ccc(C(=O)NC(CCCCCCCCCC(=O)O)C(=O)O)cc3)cnc2n1 (configuration not stated)

Compound: CN(Cc1cnc2nc(N)nc(N)c2n1)c1ccc(C(=O)NC(CCCCCCC(=O)O)C(=O)O)cc1 (configuration not stated)
- Weight change (L1210 [3]): -12%
- Range (L1210 [4]): 14 days
- ILS at 20 mg/kg (L1210 [5]): 68%
- IC50 (CCRF-CEM [6]): 5.8 µM
- Survival (L1210 [7]): 17 days
- IC50 (L1210 ( R81)): 68 µM
- Range (L1210 [8]): 17 days
- IC50 (L1210 [2]): 0.0012 µM
- Survival (L1210 [9]): 18 days
- ILS at 40 mg/kg (L1210 [10]): 93%
- inhibition [11]: 47%
- Range (L1210 [12]): 9 days
- Weight change (L1210 [13]): 4%
- IC50 (CCRF-CEM [14]): 0.15 µM
- Range (L1210 [15]): 15 days
- Weight change (L1210 [16]): 4%
- ILS at 80 mg/kg (L1210 [17]): 43%
- Survival (L1210 [18]): 14.8 days
- IC50 (Dihydrofolate reductase): 0.023 µM
- Ki [19]: 320 µM
- ILS at 60 mg/kg (L1210 [20]): 105%
- Survival (L1210 [21]): 12.6 days
- Weight change (L1210 [22]): -1%

Compound: CN(Cc1cnc2nc(N)nc(N)c2n1)c1ccc(C(=O)NC(CCCCCCCCCCC(=O)O)C(=O)O)cc1 (configuration not stated)
- Weight change (L1210 [3]): 4%
- ILS at 20 mg/kg (L1210 [5]): 137%
- IC50 (CCRF-CEM [6]): 10 µM
- Survival (L1210 [7]): 19 days
- Range (L1210 [23]): 9 days
- IC50 (L1210 ( R81)): 56 µM
- IC50 (L1210 [2]): 0.026 µM
- Survival (L1210 [9]): 17.3 days
- ILS at 40 mg/kg (L1210 [10]): 116%
- inhibition (Mus musculus): 59%
- Range (L1210 [24]): 12 days
- Weight change (L1210 [13]): 3%
- IC50 (CCRF-CEM [14]): 0.64 µM
- Weight change (L1210 [16]): 2%
- ILS at 80 mg/kg (L1210 [17]): 14%
- Survival (L1210 [18]): 20.4 days
- IC50 (Dihydrofolate reductase): 0.026 µM
- Range (L1210 [25]): 9 days
- ILS at 60 mg/kg (L1210 [20]): 97%
- Survival (L1210 [21]): 10 days
- Range (L1210 [26]): 19 days
- Weight change (L1210 [22]): 3%

- Ki [27]: 20 µM
- Ki [28]: 4 µM
Compound: CN(Cc1cnc2nc(N)nc(N)c2n1)c1ccc(C(=O)N[C@@H](CCCN)C(=O)O)cc1
